According to patent publication US12558351B2, “Compositions and methods for enhancing cancer immune checkpoint therapy” (DUKE UNIVERSITY, priority 2019, dated 2026):

Key:
[1] = system: pro-inflammatory cytokine genes involved in cellular innate immunity; assay: Q-RT-PCR of cytokine mRNA in wild type 4T1 cells treated with ATM inhibitors; format: cell-based, mouse; settings: FIG. 10
Method: (§1) Total RNA was extracted from cells by use of RNeasy Mini Kit (Qiagen) according to manufacturer's instructions. RNA was subjected to cDNA synthesis with random hexamer primers using Superscript II reverse transcriptase (Invitrogen). Quantitative real-time PCR was performed using Quanti Test SYBR Green PCR Master Mix Kit (Qiagen). Primers used for different target genes are listed in the Sequences section herein.

B16F10 melanoma = assay: Tumor growth delay and survival, B16F10 melanoma in C57BL/6 mice; format: in vivo, mouse
Method: (§2) All animal experiments conducted in this study were approved by Duke University Institutional Animal Use and Care Committee. C57BL/6J and Balb/C, mice were purchased from The Jackson Laboratory. NSG mice were purchased from Division of Laboratory Animal Resources (DLAR) of Duke University. Prior to tumor cell injection, age-matched 6-8 weeks old mice were shaved at one of the flanks. Tumor cells were then injected into shaved flanks subcutaneously with Lenti-CRISPRv2 modified control or target gene-specific knockout tumor cells. Tumor volumes were measured every 2-3 days and calculated by the formula: […]. The mice were sacrificed when tumors reached 2000 mm^3.
(§3) For antibody treatments, mice were given 100 μg antibody via intraperitoneal (i.p.) injection at day 6, 9, 12 post tumor cells injection using following antibodies: anti-PD1 (clone 29F.1A12) or isotype (clone 2A3) from BioXCell.

4T1 tumor = assay: Tumor growth delay and survival, 4T1 tumors in Balb/c mice; format: in vivo; settings: 4T1, Balb/c; anti-PD1 100 μg/mouse days 6, 9, 12 or AZD1390 10 mg/kg daily days 4-14; FIGS. 27, 28
Method: as §2, §3

p-TBK [2] = assay: Western blot of p-TBK in B16 cells; format: cell-based, mouse
Method: (§4) Cells lysates were boiled in sodium dodecyl sulfate (SDS) sample loading buffer, resolved by 10% SDS-polyacrylamide gel electrophoresis (SDS-PAGE) and transferred to nitrocellulose. The membranes were blocked in 5% milk in Tris-buffered saline and Tween 20 (TBST; 10 mM Tris-HCl [pH 8.0], 150 mM NaCl, 0.1% Tween 20) for 1 hr at room temperature. After washing twice with TBST, the membranes were incubated with appropriate primary antibodies in BSA/TBST for overnight and then washed three times with TBST, probed with horseradish […] anti-immunoglobulin (1:5000 dilution) for 1 hr at room temperature. After three washes with TBST, immunoreacted products were visualized using enhanced chemiluminescence reagent and autoradiography.

ISGs = assay: qRT-PCR of ISGs in B16F10 cells; format: cell-based, mouse
Method: as §1

[3] = system: mitochondrial DNA (mtDNA) release; assay: Q-PCR of mtDNA in digitonin cytosolic extracts of B16F10 cells; format: cell-based, mouse; settings: 1 μM AZD1390 for 48 hours, FIGS. 59, 60
cGAS-STING = assay: Ethidium bromide mtDNA depletion, cGAS-STING activation in B16F10 cells; format: cell-based, mouse; settings: wild-type B16F10, 100 ng/ml ethidium bromide 20 days, then 1 μM AZD1390 48 hr; FIG. 103
Method: as §4
A previously published protocol was used (White, M. J. et al. Cell (2014) doi:10.1016/j.cell1.2014.11.036). Vector control, ATM KO and wild-type B16 cells were cultured in Dulbecco's modified Eagle's medium (DMEM) with 10% FBS. About 100 ng/ml ethidium bromide was added to the medium for 20 days before the cells were harvested for experiments.
Total RNA was extracted from cells by use of RNeasy Mini Kit (Qiagen) according to manufacturer's instructions. […] Quantitative real-time PCR was performed using Quanti Test SYBR Green PCR Master Mix Kit (Qiagen). […]

ATM kinase = ATM kinase (Homo sapiens, UniProt Q13315); settings: Durant et al. Sci Adv 2018; cited from earlier work
glioma = settings: preclinical models; Durant et al. Sci Adv 2018; cited from earlier work
p-TBK [4] = assay: Western blot of p-TBK in MDA-MB-231 cells; format: cell-based; settings: human MDA-MB-231 cells, Ku55933 for 6 hours; FIG. 91
Method: as §4

ATM kinase, sequence (Q13315 whole entry): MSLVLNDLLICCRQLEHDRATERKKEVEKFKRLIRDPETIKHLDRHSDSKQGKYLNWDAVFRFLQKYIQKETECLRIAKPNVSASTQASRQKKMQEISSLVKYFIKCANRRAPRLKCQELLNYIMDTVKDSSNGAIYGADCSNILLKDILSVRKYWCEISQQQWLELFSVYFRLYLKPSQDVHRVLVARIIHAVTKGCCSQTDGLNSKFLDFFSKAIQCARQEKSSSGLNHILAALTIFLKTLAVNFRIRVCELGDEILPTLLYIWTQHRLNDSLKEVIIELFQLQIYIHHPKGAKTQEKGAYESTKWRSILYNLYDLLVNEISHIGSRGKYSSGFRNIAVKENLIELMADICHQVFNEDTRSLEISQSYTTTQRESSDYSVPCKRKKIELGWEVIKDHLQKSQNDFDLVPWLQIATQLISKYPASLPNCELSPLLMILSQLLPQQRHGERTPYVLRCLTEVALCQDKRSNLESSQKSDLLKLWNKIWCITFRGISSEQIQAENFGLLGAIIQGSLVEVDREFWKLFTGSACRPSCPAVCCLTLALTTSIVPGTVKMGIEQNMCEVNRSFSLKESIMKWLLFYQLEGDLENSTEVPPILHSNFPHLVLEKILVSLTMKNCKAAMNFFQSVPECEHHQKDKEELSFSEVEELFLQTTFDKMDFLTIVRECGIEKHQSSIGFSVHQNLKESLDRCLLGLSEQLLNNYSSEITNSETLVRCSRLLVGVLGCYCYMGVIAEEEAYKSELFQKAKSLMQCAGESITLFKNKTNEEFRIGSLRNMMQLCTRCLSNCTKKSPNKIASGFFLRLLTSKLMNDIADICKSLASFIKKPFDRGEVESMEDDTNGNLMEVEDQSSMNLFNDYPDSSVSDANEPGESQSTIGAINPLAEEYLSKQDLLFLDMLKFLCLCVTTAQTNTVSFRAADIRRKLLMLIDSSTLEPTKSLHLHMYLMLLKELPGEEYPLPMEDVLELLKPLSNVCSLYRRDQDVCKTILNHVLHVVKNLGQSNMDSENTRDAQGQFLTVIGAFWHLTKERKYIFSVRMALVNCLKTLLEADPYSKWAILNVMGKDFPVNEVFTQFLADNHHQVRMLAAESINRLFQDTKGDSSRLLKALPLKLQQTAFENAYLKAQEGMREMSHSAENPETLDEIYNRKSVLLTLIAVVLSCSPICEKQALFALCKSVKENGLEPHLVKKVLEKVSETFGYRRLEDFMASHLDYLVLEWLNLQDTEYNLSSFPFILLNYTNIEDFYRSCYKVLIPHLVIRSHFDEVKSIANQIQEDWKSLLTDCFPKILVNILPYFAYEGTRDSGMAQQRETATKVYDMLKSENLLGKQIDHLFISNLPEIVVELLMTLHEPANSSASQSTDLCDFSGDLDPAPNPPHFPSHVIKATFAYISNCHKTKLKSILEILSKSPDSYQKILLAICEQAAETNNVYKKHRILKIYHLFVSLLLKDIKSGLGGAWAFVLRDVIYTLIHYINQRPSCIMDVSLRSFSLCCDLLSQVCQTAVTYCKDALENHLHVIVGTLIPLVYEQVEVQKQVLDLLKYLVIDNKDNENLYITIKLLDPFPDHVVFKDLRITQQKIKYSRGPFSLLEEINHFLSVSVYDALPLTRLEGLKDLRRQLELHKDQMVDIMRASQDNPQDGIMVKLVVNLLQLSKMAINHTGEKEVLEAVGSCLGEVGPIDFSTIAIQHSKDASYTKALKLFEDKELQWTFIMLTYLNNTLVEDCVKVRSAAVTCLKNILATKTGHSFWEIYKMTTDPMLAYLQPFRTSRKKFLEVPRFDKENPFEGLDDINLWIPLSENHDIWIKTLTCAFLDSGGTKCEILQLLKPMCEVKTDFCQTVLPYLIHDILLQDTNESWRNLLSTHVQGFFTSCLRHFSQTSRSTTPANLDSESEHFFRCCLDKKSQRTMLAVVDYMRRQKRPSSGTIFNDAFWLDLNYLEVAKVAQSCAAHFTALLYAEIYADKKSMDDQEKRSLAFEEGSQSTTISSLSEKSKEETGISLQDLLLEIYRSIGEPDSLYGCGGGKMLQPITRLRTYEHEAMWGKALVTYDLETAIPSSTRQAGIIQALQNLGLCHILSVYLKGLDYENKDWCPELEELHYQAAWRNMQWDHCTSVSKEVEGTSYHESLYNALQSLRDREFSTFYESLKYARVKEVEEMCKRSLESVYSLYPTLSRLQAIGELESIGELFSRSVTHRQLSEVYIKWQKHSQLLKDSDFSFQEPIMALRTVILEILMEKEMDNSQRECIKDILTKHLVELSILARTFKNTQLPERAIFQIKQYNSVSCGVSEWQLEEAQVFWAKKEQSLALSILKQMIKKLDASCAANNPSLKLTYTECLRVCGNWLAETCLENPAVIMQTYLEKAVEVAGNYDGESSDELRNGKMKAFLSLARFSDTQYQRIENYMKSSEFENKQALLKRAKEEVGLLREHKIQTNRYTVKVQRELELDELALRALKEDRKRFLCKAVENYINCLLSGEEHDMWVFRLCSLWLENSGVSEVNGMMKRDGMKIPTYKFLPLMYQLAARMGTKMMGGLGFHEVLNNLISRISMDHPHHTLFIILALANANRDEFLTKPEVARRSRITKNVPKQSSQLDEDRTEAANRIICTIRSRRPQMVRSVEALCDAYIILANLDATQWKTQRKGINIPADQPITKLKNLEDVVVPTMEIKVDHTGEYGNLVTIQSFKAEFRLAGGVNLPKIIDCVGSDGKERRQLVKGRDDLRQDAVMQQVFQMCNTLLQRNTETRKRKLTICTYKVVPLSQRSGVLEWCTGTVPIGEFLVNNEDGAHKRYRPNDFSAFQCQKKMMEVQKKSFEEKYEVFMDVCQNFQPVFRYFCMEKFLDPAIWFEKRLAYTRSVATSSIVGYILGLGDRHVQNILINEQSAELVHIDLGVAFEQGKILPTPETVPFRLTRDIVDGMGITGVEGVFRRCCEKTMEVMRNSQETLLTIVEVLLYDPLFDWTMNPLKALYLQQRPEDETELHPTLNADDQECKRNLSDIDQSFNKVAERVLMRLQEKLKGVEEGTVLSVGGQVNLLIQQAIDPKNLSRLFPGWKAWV

Compound	pro-inflammatory cytokine gene expression [1]	enhancement of anti-tumor efficacy of the anti-PD1 antibody (B16F10 melanoma; B16F10, C57BL/6, AZD1390 10 mg/kg daily days 4-14 plus anti-PD1 100 μg/mouse days 6, 9, 12, FIGS. 25, 26)	enhancement of tumor suppression mediated by an anti-PD1 antibody (B16F10 melanoma; B16F10 melanoma, anti-PD1 100 μg/mouse and AZD1390 2.5 mg/Kg, FIG. 11)	effect on tumor growth, single agent (B16F10 melanoma; B16F10 tumors, C57BL/6, AZD1390 alone 10 mg/kg daily days 4-14, FIG. 25)	effect on tumor growth, single agent (4T1 tumor)	phosphorylation of TBK (p-TBK [2]; AZD1390 at indicated concentrations for 48 hrs, FIG. 45)	expression of ISGs (ISGs; 1 μM AZD1390 for 48 hrs, FIG. 46)	mitochondrial DNA (mtDNA) release [3]	cGAS-STING activation (pTBK) induced by AZD1390 after EtBr-induced depletion of mtDNA (cGAS-STING)	ATM kinase inhibitor character (ATM kinase)	enhancement of radiotherapy of glioma (glioma)	phosphorylation of TBK (p-TBK [2]; Ku55933 indicated concentrations 6 hours, or 5 μM at indicated times, FIGS. 88, 89)	expression of p-TBK (p-TBK [4])	expression of ISGs (ISGs; 10 μM Ku55933 for 9 hours (IFIT1, CCL5), FIG. 90)
CC(C)n1c(=O)n(C)c2cnc3cc(F)c(-c4ccc(OCCCN5CCCCC5)nc4)cc3c21 [AZD1390]	induce the pro-inflammatory cytokine genes	significantly enhanced	significantly enhanced tumor suppression	almost negligible effect	more significant tumor-suppressive effect	induced increased phosphorylation of TBK	induced expression of ISGs	induced mitochondrial DNA (mtDNA) release	abrogated	potent and selective	significantly enhanced radiotherapy of glioma	–	–	–
O=c1cc(-c2cccc3c2Sc2ccccc2S3)oc(N2CCOCC2)c1 [Ku55933]	induce the pro-inflammatory cytokine genes	–	–	–	–	–	–	–	–	–	–	induced increased phosphorylation of TBK	induced expression of p-TBK	induced expression of ISGs
